Source: patent US20230192683A1, “FUSED RING COMPOUNDS, PREPARATION METHOD THEREFOR, PHARMACEUTICAL COMPOSITIONS AND USE THEREOF” (priority 2020, published 2023)
Marks after values point to notes of the source that are not given here.

Key:
[1] = test system: rat CFA pain model; assay: single-dose pharmacodynamic study in rat CFA pain model (Von Frey PWT); format: in vivo
Description: Each male SD rat (7-8 weeks old) was injected with 50 microliters of CFA in the center of the left hind paw. A PWT basal value test was conducted 24 hours after modeling, and the drugs were administered after randomization.
There were 8 animals in each group, and the animals were weighed and administered according to Table 4.
For all groups of animals, paw withdrawal thresholds (PWTs) of the animals were tested using Von Frey after 1 h and 3 h of single administration.

[2] = biological target: T1, human SSTR4 (Homo sapiens, UniProt P31391); assay: cell-based human SSTR4 cAMP assay (agonist activity); conditions: SSTR4, EC50 (nM), Flp-In-CHO-SSTR4 stable pool, Forskolin-stimulated cAMP
T1 construct: expressed in transfected cells
T1 sequence (P31391 whole entry): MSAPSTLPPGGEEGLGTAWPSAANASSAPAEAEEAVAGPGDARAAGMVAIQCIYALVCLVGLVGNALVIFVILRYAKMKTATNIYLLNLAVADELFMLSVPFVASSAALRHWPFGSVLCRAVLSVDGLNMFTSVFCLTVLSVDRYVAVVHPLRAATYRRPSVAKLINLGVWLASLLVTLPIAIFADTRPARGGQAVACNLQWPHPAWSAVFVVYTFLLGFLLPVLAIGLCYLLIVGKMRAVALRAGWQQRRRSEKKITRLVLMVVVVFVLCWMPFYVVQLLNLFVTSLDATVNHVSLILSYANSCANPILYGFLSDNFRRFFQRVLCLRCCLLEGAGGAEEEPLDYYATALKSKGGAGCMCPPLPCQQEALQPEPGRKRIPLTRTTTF
Description: Purpose of test: A cell-based human SSTR4 cAMP assay was used to determine the agonistic effect of the test compound on an SSTR 4 receptor.
Cell culture and reagent preparation: cell line: Flp-In-CHO-SSTR4 stable pool; complete medium: Ham’s F-12 K + 10% FBS + 1 × penicillin-streptomycin (PS) + 600 µg/ml hygromycin B; cell seeding medium: Ham’s F-12K + 10% FBS; assay buffer: 1 × HBSS + 20 mM HEPES + 0.1%BSA + 500 uM IBMX.
The Flp-In-CHO-SSTR 4 stable pool cell line was cultured in a complete medium at 37° C., 5% CO2 until a confluency of 70% to 90%.
After TrypLE digestion, the cells were resuspended in the seeding medium and seeded in a 384-well cell culture plate (384 PE culture plate), with 7,000 cells per well, and were cultured overnight at 37° C., 5% CO2.
The cell culture plate was taken out, inverted at 200 g at room temperature for 5 s to remove the medium, then quickly filled with 15 µl of an experimental buffer to each experimental well, and centrifuged at 200 g at room temperature for 5 s.
2.5 µl of the 8x compound working solution diluted in step 3 was added to corresponding test wells, which were centrifuged at 200 g for 5 s at room temperature, and incubated at 37° C. for 10 min.
A 4 uM Forskolin working solution (8x) was prepared.
The cell plate was taken out and equilibrated to room temperature, then filled with 2.5 µl of the 8x Forskolin working solution prepared in step 6 to corresponding test wells, followed by RT at 200 g for 5 s, and left to stand at 37° C. for 30 min.
A Eu-cAMP tracer and Uliaght-anti-cAMP were freeze-thawed, the Eu-cAMP tracer was diluted 50-fold with a detection buffer, and the Uliaght-anti-cAMP was dilutd 150-fold.
10 µl of the Eu-cAMP tracer was added to all experimental wells, then 10 µl of the detection buffer was added to NC wells, and 10 µl of the Uliaght-anti-cAMP was added to the remaining experimental wells.
The reaction plate was centrifuged at 200 g for 30 s at room temperature, and after standing at 25° C. for 1 h, data was collected using Envision.
Compound EC50 was calculated using a GraphPad nonlinear fitting formula: […]
X: Compound concentration log value; Y: HTRF ratio

Structure (SMILES): CSc1cccc2c(C(C)(C)NC(=O)[C@H]3[C@@H]4CNC[C@@H]43)nn(C)c12 [Compound 14, (1R,5S,6R)-N-(2-(1-Methyl-7-(Methylthio)-1H-Indazol-3-yl)Prop-2-yl)-3-Azabicyclo[3.1.0]Hexane-6-Carboxamide]
- Mechanical allodynia test (PWT (g), mean) Baseline ([1]; 10 mg/kg I.P. group, baseline 24 h after CFA, before administration): 3.566 g
- Mechanical allodynia test (PWT (g), mean) 1 hour ([1]; 10 mg/kg I.P., 1 hour after single administration): 4.628 g
- efficacy compared with Control Compound A (in words) ([1]; 10 mg/kg I.P., 3 hours after administration): significantly better than that of Control Compound A
- Mechanical allodynia test (PWT (g), mean) 3 hours ([1]; 10 mg/kg I.P., 3 hours after single administration): 8.886 **** # g
- inhibition of CFA-induced mechanical allodynia (in words) ([1]; 10 mg/kg I.P., single administration, FIG. 1): inhibited CFA-induced mechanical allodynia
- EC50 [2]: 0.057 nM
